Reference: patent US6964975B2, “Isoxazole and thiazole compounds and use thereof as medicine” (Kirin Beer Kabushiki Kaisha, priority 2000, dated 2005)

Experiments:
Human EDG-2/HepG2 cells = assay: Inhibitory activity on LPA-accelerated [3H] thymidine incorporation (cell proliferation); assay type: cell-based; conditions: 50% inhibition of LPA-induced increase of [3H] thymidine incorporation
Excerpt: The human EDG-2 expression plasmid was introduced into HepG2 cells by electroporation. After the introduction, culturing was continued while exchanging selective media every 3 to 4 days, thereby obtaining an expressed colony. Regarding these cells, Ca-influx and cell-proliferation by LPA, level of [^3H] LPA binding and the like were inspected to select a cell line which highly expresses human EDG-2 (human EDG-2/HepG2).
Human EDG-2/HepG2 cells suspended in 10% bovine serum-containing DMEM (Dulbecco's modified eagle medium) were plated on a 96-well plate and, on the next day, the medium was exchanged with serum-free DMEM. 24 hours later, the medium was exchanged with DMEM containing LPA or DMEM containing no LPA, cells were cultured for further 16 hours, and [^3H] thymidine was then added. After culturing for 8 hours subsequent to the addition of [^3H] thymidine, cells were washed with PBS (phosphate-buffered saline), and the amount of [^3H] thymidine incorporated into the cells were assayed by Betaplate filter counter system (Amersham Pharmacia Biotech). The difference between the amount of [^3H] thymidine incorporated in the LPA-added well and the amount of [^3H] thymidine incorporated in the well containing no LPA represents the amount of [^3H] thymidine incorporation accelerated by LPA. […] The test compounds were added immediately before the LPA addition.

human EDG-2 = target: T1, human EDG-2 (Homo sapiens, UniProt Q92633); assay: Inhibitory activity on LPA-induced elevation of intracellular Ca2+ level; assay type: cell-based; conditions: 50% inhibition of elevation of intracellular Ca2+ level by LPA, human EDG-2/HepG2 cells, fura-2
T1 construct: cDNA of the cloned human EDG-2 was introduced into pEFneo, which is an animal expression vector; expressed in transfected cells; host or cells: HepG2
T1 sequence (Q92633 whole entry): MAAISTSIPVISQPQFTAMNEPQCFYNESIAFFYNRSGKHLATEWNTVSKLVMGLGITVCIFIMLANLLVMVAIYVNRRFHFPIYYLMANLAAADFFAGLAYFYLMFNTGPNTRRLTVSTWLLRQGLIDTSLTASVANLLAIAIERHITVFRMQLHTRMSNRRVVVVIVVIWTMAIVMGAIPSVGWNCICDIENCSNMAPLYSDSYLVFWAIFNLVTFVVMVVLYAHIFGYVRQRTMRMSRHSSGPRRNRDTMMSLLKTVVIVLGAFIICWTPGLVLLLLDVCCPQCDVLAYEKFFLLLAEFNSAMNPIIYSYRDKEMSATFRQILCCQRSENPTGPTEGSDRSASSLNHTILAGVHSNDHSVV
In short: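 Stably transfected HepG2 cells loaded with fura-2/AM (45 min, room temperature) in 0.1% BSA HEPES buffer. Test compound added before LPA, and the LPA-evoked intracellular Ca2+ rise measured fluorometrically. IC50 for inhibition derived.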

Compound	IC50 (Human EDG-2/HepG2 cells) [nM]	IC50 (human EDG-2) [nM]
Cc1onc(-c2ccccc2)c1NC(=O)OC(C)c1ccccc1Cl (centres unmarked) [Compound 4, 1-(2-Chlorophenyl)ethyl N-(5-methyl-3-phenyl-4-isoxazolyl)carbamate]	1000	3000
Cc1onc(-c2ccccc2F)c1NC(=O)OC(C)c1ccccc1Cl (centres unmarked) [Compound 20, 1-(2-Chlorophenyl)ethyl N-[3-(2-fluorophenyl)-5-methyl-4-isoxazolyl]carbamate]	1000	3000
Cc1noc(-c2ccco2)c1NC(=O)OC(C)c1ccccc1Cl (centres unmarked) [Compound 32, 1-(2-Chlorophenyl)ethyl N-[5-(2-furyl)-3-methyl-4-isoxazolyl]carbamate]	1000	3000
Cc1noc(-c2ccc(C#N)cc2)c1NC(=O)OC(C)c1ccccc1Cl (centres unmarked) [Compound 47, 1-(2-Chlorophenyl)ethyl N-[5-(4-cyanophenyl)-3-methyl-4-isoxazolyl]carbamate]	300	1000
Cc1noc(-c2ccncc2)c1NC(=O)OC(C)c1ccccc1Cl (centres unmarked) [Compound 62, 1-(2-Chlorophenyl)ethyl N-[3-methyl-5-(4-pyridyl)-4-isoxazolyl]carbamate]	3000	3000
Cc1ccsc1-c1onc(C)c1NC(=O)OC(C)c1ccccc1Cl (centres unmarked) [Compound 67, 1-(2-Chlorophenyl)ethyl N-[3-methyl-5-(3-methyl-2-thienyl)-4-isoxazolyl]carbamate]	1000	3000
Cc1noc(-c2ccnc(Cl)c2)c1NC(=O)OC(C)c1ccccc1Cl (centres unmarked) [Compound 71, 1-(2-Chlorophenyl)ethyl N-[5-(2-chloro-4-pyridyl)-3-methyl-4-isoxazolyl]carbamate]	1000	3000
Cc1noc(-c2ccc(CNCCc3ccccn3)cc2)c1NC(=O)OC(C)c1ccccc1Cl (centres unmarked) [Compound 103]	300	10000
Cc1noc(-c2ccc(CNCC3CCCO3)cc2)c1NC(=O)OC(C)c1ccccc1Cl (centres unmarked) [Compound 104, 1-(2-Chlorophenyl)ethyl N-[3-methyl-5-(4-{[(tetrahydro-2-furanylmethyl)amino]-methyl}phenyl)-4-isoxazolyl]carbamate]	3000	10000 to 30000
Cc1noc(-c2ccc(CNCc3ccccn3)cc2)c1NC(=O)OC(C)c1ccccc1Cl (centres unmarked) [Compound 105, 1-(2-Chlorophenyl)ethyl N-[3-methyl-5-(4-{[(2-pyridylmethyl)amino]methyl}-phenyl)-4-isoxazolyl]carbamate]	1000	10000 to 30000
Cc1noc(-c2ccc(CNCc3ccco3)cc2)c1NC(=O)OC(C)c1ccccc1Cl (centres unmarked) [Compound 106, 1-(2-Chlorophenyl)ethyl N-[5-(4-{[(2-furylmethyl)amino]methyl}phenyl)-3-methyl-4-isoxazolyl]carbamate]	1000 to 3000	3000 to 10000
Cc1noc(-c2ccc(CSCc3ccco3)cc2)c1NC(=O)OC(C)c1ccccc1Cl (centres unmarked) [Compound 107, 1-(2-Chlorophenyl)ethyl N-[5-(4-{[(2-furylmethyl)sulfanyl]methyl}phenyl)-3-methyl-4-isoxazolyl]carbamate]	30 to 100	3000 to 10000
CCSCc1ccc(-c2onc(C)c2NC(=O)OC(C)c2ccccc2Cl)cc1 (centres unmarked) [Compound 108, 1-(2-Chlorophenyl)ethyl N-(5-{4-[(ethylsulfanyl)methyl]phenyl}-3-methyl-4-isoxazolyl)carbamate]	100 to 300	3000 to 10000
CCCCCNCc1ccc(-c2onc(C)c2NC(=O)OC(C)c2ccccc2Cl)cc1 (centres unmarked) [Compound 109, 1-(2-Chlorophenyl)ethyl N-(3-methyl-5-{4-[(pentylamino)methyl]phenyl}-4-isoxazolyl)carbamate]	1000 to 3000	10000 to 30000
Cc1noc(-c2ccc(CNCCc3cccnc3)cc2)c1NC(=O)OC(C)c1ccccc1Cl (centres unmarked) [Compound 110, 1-(2-Chlorophenyl)ethyl N-{3-methyl-5-[4-({[2-(3-pyridyl)ethyl]amino}methyl)-phenyl]-4-isoxazolyl}carbamate]	300 to 1000	10000 to 30000
Cc1noc(-c2ccc(CNCCc3ccncc3)cc2)c1NC(=O)OC(C)c1ccccc1Cl (centres unmarked) [Compound 111, 1-(2-Chlorophenyl)ethyl N-{3-methyl-5-[4-({[2-(4-pyridyl)ethyl]amino}methyl)phenyl]-4-isoxazolyl}carbamate]	1000 to 3000	10000 to 30000

Compound	IC50 (Human EDG-2/HepG2 cells) [nM]	IC50 (human EDG-2) [nM]
Cc1noc(-c2ccc(CNCCF)cc2)c1NC(=O)OC(C)c1ccccc1Cl (centres unmarked) [Compound 112, 1-(2-Chlorophenyl)ethyl N-[5-(4-{[(2-fluoroethyl)amino]methyl}phenyl)-3-methyl-4-isoxazolyl]carbamate]	300 to 1000	10000 to 30000
CCOC(=O)CCNCc1ccc(-c2onc(C)c2NC(=O)OC(C)c2ccccc2Cl)cc1 (centres unmarked) [Compound 113, Ethyl 3-({4-[4-({[1-(2-chlorophenyl)ethoxy]carbonyl}amino)-3-methyl-5-isoxazolyl]-benzyl}amino)propanoate]	100 to 300	10000 to 30000
Cc1cnc(CNCc2ccc(-c3onc(C)c3NC(=O)OC(C)c3ccccc3Cl)cc2)cn1 (centres unmarked) [Compound 114, 1-(2-Chlorophenyl)ethyl N-{3-methyl-5-[4-({[(5-methyl-2-pyrazyl)methyl]amino}-methyl)phenyl]-4-isoxazoly}carbamate]	300 to 1000	10000 to 30000
CCNCc1ccc(-c2onc(C)c2NC(=O)OC(C)c2ccccc2Cl)cc1 (centres unmarked) [Compound 116, 1-(2-Chlorophenyl)ethyl N-(5-{4-[(ethylamino)methyl]phenyl}-3-methyl-4-isoxazolyl)-carbamate]	300 to 1000	30000 to 100000
CCCSCc1ccc(-c2onc(C)c2NC(=O)OC(C)c2ccccc2Cl)cc1 (centres unmarked) [Compound 117, 1-(2-Chlorophenyl)ethyl N-(3-methyl-5-{4-[(propylsulfanyl)methyl]phenyl}-4-isoxazolyl)-carbamate]	30 to 100	3000 to 10000
COC(=O)CSCc1ccc(-c2onc(C)c2NC(=O)OC(C)c2ccccc2Cl)cc1 (centres unmarked) [Compound 118, Methyl 2-({4-[4-({[1-(2-chlorophenyl)ethoxy]carbonyl}-amino)-3-methyl-5-isoxazolyl]-benzyl}-sulfanyl)acetate]	100 to 300	1000 to 3000
CCOC(=O)CSCc1ccc(-c2onc(C)c2NC(=O)OC(C)c2ccccc2Cl)cc1 (centres unmarked) [Compound 119, Ethyl 2-({4-[{4-(i [-(2-chlorophenyl)ethoxy]carbonyl}amino)-3-methyl-5-isoxazolyl]benzyl}-sulfanyl)acetate]	100 to 300	3000 to 10000
Cc1noc(-c2ccc(CSCCO)cc2)c1NC(=O)OC(C)c1ccccc1Cl (centres unmarked) [Compound 120, 1-(2-Chlorophenyl)ethyl N-[5-(4-{[(2-hydroxyethyl)sulfanyl]methyl}phenyl)-3-methyl-4-isoxazolyl]carbamate]	100 to 300	3000 to 10000
Cc1noc(-c2ccc(CSCC(=O)O)cc2)c1NC(=O)OC(C)c1ccccc1Cl (centres unmarked) [Compound 121, 2-({4-[4-({[1-(2-Chlorophenyl)ethoxy]carbonyl}amino)-3-methyl-5-isoxazolyl]benzyl}-sulfanyl)acetic acid]	30 to 100	3000 to 10000
C=CCSCc1ccc(-c2onc(C)c2NC(=O)OC(C)c2ccccc2Cl)cc1 (centres unmarked) [Compound 123, 1-(2-Chlorophenyl)ethyl N-(5-{4-[(allylsulfanyl)methyl]phenyl}-3-methyl-4-isoxazolyl)-carbamate]	100 to 300	3000 to 10000
Cc1noc(-c2ccc(CSCCc3ccccc3)cc2)c1NC(=O)OC(C)c1ccccc1Cl (centres unmarked) [Compound 124]	100 to 300	10000 to 30000
CCCCSCc1ccc(-c2onc(C)c2NC(=O)OC(C)c2ccccc2Cl)cc1 (centres unmarked) [Compound 125, 1-(2-Chlorophenyl)ethyl N-(5-{4-[(butylsulfanyl)methyl]phenyl)-3-methyl-4-isoxazolyl)-carbamate]	100 to 300	10000 to 30000
Cc1noc(-c2ccc(CSCCC(=O)O)cc2)c1NC(=O)OC(C)c1ccccc1Cl (centres unmarked) [Compound 126, 3-({4-[4-({[1-(2-Chlorophenyl)ethoxy]carbonyl}amino)-3-methyl-5-isoxazolyl]benzyl}-sulfanyl)propanoic acid]	10 to 30	3000 to 10000
COCc1cccc(-c2onc(C)c2NC(=O)OC(C)c2ccccc2Cl)c1 (centres unmarked) [Compound 128, 1-(2-Chlorophenyl)ethyl N-{5-[3-(methoxymethyl)phenyl]-3-methyl-4-isoxazolyl}carbamate]	100 to 300	3000 to 10000
Cc1noc(-c2ccc(CCl)cc2)c1NC(=O)OC(C)c1ccccc1F (centres unmarked) [Compound 155, 1-(2-Fluorophenyl)ethyl N-{5-[4-(chloromethyl)phenyl]-3-methyl-4-isoxazolyl}carbamate]		3000 to 10000
CCc1noc(-c2ccc(CCl)cc2)c1NC(=O)OC(C)c1ccccc1F (centres unmarked) [Compound 160, 1-(2-Fluorophenyl)ethyl N-{5-[4-(chloromethyl)phenyl]-3-ethyl-4-isoxazolyl}carbamate]		3000 to 10000
